How the values were obtained:
HSA [1] = target: T1, HSA (Homo sapiens, UniProt P02768); conditions: up to concentration of several hundred μM; cited from earlier work
HSA (Sudlow site I) = target: T2, HSA (Sudlow site I) (Homo sapiens, UniProt P02768); experiment: doubly-selective R1-filtered and spin-echo 1H NMR competition binding, spy molecule warfarin; conditions: 25 μM, HSA 0 to 2.5 μM
T2 construct: Fatty acid free human serum albumin (A-3782) was purchased from Sigma and used without further purification; purchased Sigma A-3782

HSA [2] = target: T1, HSA; conditions: 20° C.; read-out: KD^(a) binding constant of L-Trp measured with equilibrium dialysis; cited from earlier work
HSA [3] = target: T1, HSA; experiment: previous NMR measurement of the low affinity second binding site for Trp; conditions: 20° C., measured previously by NMR
Source text: […]. J., 273, 641-644 (1991)) is somewhat larger. This small difference can probably be ascribed to the presence of a low affinity second binding site for Trp. […] Despite this complication, the values that are rapidly derived from the NMR screening experiments serve for most of the purposes in the early stages of drug discovery.

T1 sequence (P02768 25-609): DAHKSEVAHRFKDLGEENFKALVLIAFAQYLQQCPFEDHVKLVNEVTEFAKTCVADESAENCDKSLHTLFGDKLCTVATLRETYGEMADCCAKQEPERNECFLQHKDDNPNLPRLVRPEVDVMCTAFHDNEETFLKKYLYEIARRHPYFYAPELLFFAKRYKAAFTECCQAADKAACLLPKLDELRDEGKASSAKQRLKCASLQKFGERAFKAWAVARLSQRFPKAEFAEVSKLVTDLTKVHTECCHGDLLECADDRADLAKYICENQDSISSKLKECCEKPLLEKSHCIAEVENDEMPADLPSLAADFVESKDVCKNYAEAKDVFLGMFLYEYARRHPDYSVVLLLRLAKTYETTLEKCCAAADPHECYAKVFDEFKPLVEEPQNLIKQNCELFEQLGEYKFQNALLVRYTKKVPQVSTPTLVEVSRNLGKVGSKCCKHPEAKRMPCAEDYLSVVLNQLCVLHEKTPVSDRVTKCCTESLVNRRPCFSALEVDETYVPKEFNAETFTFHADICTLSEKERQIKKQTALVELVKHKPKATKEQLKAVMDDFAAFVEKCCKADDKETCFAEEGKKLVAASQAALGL
T2 sequence (P02768 25-609): as above

binding of the control molecule to HSA (signal intensity as a function of protein concentration) (HSA (Sudlow site I)) | affinity for the low affinity second binding site (HSA [3]) | SMILES | interaction with HSA (HSA [1]) | Kd (HSA [2]) [µM]
does not bind |  | Cc1ccc2[nH]cc(CC(N)C(=O)O)c2c1 (stereo not shown) [5-CH3 D,L Trp (2), 5-CH3 D,L Trp] | does not interact with HSA | 
 | several hundreds | N[C@@H](Cc1c[nH]c2ccccc12)C(=O)O [Trp, tryptophan] |  | 23

Reference: US7470543B2, “Methods for identifying ligands using competitive binding 1H NMR experiments” (Nerviano Medical Sciences S.r.l., priority 2002, dated 2008)
